Reference: patent US3978035A, “13-Norleucine-14-desamido motilin, a method for preparing it and an agent containing it” (Max-Planck-Gesellschaft zur Forderung der Wissenschaften …, priority 1973, dated 1976)
Where a SMILES comes first, the peptide text is derived from it. [ ]: non-standard residue; d: D form. Nle = CCCC[C@H](N)C(=O)O

Assay: biological activity in comparison with natural motilin
Details: after purification on ion exchangers; relative to naturally occurring motilin (method reference: J. C. Brown et al.)

| SMILES | biological activity in comparison with natural motilin |
| --- | --- |
| CCCC[C@H](NC(=O)[C@H](CCCNC(=N)N)NC(=O)[C@H](CCC(N)=O)NC(=O)[C@H](CC(C)C)NC(=O)[C@H](CCC(=O)O)NC(=O)CNC(=O)[C@H](Cc1ccc(O)cc1)NC(=O)[C@@H](NC(=O)[C@H](Cc1ccccc1)NC(=O)[C@@H](NC(=O)[C@@H]1CCCN1C(=O)[C@@H](NC(=O)[C@@H](N)Cc1ccccc1)C(C)C)[C@@H](C)CC)[C@@H](C)O)C(=O)N[C@@H](CCC(=O)O)C(=O)N[C@@H](CCC(=O)O)C(=O)N[C@@H](CCCCN)C(=O)N[C@@H](CCC(=O)O)C(=O)N[C@@H](CCCNC(=N)N)C(=O)N[C@@H](CC(N)=O)C(=O)N[C@@H](CCCCN)C(=O)NCC(=O)N[C@@H](CCC(N)=O)C(=O)O [13-norleucine-14-desamido-motilin] (H-FVPIFTYGELQR[Nle]EEKERNKGQ-OH) | above 90% |
| CCCC[C@H](NC(=O)[C@H](CCCNC(=N)N)NC(=O)[C@H](CCC(N)=O)NC(=O)[C@H](CC(C)C)NC(=O)[C@H](CCC(=O)O)NC(=O)CNC(=O)[C@H](Cc1ccc(O)cc1)NC(=O)[C@@H](NC(=O)[C@H](Cc1ccccc1)NC(=O)[C@@H](NC(=O)[C@@H]1CCCN1C(=O)[C@@H](NC(=O)[C@@H](N)Cc1ccccc1)C(C)C)[C@@H](C)CC)[C@@H](C)O)C(=O)N[C@@H](CCC(=O)O)C(=O)N[C@@H](CCC(=O)O)C(=O)N[C@@H](CCCCN)C(=O)N[C@@H](CCC(=O)O)C(=O)N[C@@H](CCCNC(=N)N)C(=O)N[C@@H](CC(N)=O)C(=O)N[C@@H](CCCCN)C(=O)NCC(=O)N[C@@H](CCC(N)=O)C(=O)O [C1 -fraction] (H-FVPIFTYGELQR[Nle]EEKERNKGQ-OH) | over 90% |
